The subject of assay [1] is HIV-1. The assay is described as follows: HIV-1 plaque assay, inhibitor added 60 minutes after infection. It counts as cell-based, human immunodeficiency virus type 1 (HIV-1). The following applies: for IC50: Human immunodeficiency virus 1, CEM-SS monolayers, compound from sixty minutes after infection, N = 4, read-out: Inhibitory Concentration50 HIV-1 Plaque Formation; for anti-HIV-1 activity: HIV-1 plaque formation, in words. An excerpt: (§1) Dextran sulfate was used as a positive control. […] Plaques were counted at five days after infection.
(§2) By way of further background, in our assay HIV-1 syncytial plaques are seen as large, multicellular foci (10 to 25 nuclei/syncytium) that appear either brown and granular or clear. Since the number of HIV-1 syncytial plaques correlates with reverse transcriptase (RT) and p24 core antigen activity in the HIV-1 infected cell overlay fluids, the syncytial plaque assay can be used to quantify the amount of infectious virus. Reverse transcriptase activity was assayed according to a described procedure (B. J. Poeisz et al., Proc. Natl. Acad. Sci. (U.S.A.) […], 7415 (1980)). The activity of p24 core antigen induced by HIV-1 infection of CEM-SS cells was measured spectrophotometrically using the commercial Abbott EIA.
(§3) Compound E inhibited HIV-1 plaque count 43%, 83%, and 91% at concentrations of 0.2, 0.4, and 2.0 μM, respectively, compared to untreated controls. […] In other experiments addition of 0.2, 0.4 and 2.0 μM Compound E starting sixty minutes after HIV-1 infection inhibited HIV-1 plaque formation 28%, 59% and 97% respectively, compared to untreated controls.
(§4) Next investigated were the correlations of EL analog structure with anti-HIV-l and anti-cell growth. The experimental method used six serial two-fold dilutions of EL that spanned concentrations above and below a concentration that inhibits HIV-1 plaque count, cell growth (^3 H-TdR uptake into cell DNA) or in vitro PKC activity by 50% (inhibitory concentration50 =IC50) compared to an appropriate mock treated control. Table 7 summarizes data on IC50 of phosphorus and non-phosphorus compounds for HIV-1 plaque formation and cell growth.
^1 Serial 2fold dilutions of compounds are used. HIV1 plaque formatio
is measured in CEMSS cell monolayers by having compound present starting
sixty minutes after virus infection. IC50 values for HIV1 plaque
formation are x ± one SD., N = 4. CEMSS cell growth is measured in […]

Another assay has as its system CEM-SS cells. The assay is described as follows: CEM-SS cell growth (3H-TdR uptake). It counts as cell-based. To be noted: Homo sapiens, 48 hours, N = 3, read-out: Inhibitory Concentration50 CEM-SS Cell Growth.
Description: as §4
formation are x ± one SD., N = 4. CEMSS cell growth is measured in
suspension cultures by treating the cells with compound for 48 hours at
37° C. and then adding 1 μCi of ^3 HTdR (S.A. = 20 Ci/mmole
for 8 hours at 37° C. to measure DNA synthesis. IC50 values
for CEMSS growth are x of a representative experiment, N = 3.

Another assay concerns Protein Kinase C. The assay is described as follows: Protein Kinase C activity (32P incorporation into histone). The format is biochemical, human (HL-60 cells). The procedure:
PKC was prepared and assayed as described previously. See Daniel, L. W. et al., Biochem. Biophys. Res. Comm. 151, 291 (1988). In brief, HL-60 cells were grown in 75 milliliter flasks, harvested and washed with ice-cold normal saline. After centrifugation (600×g, 5 minutes, 4° Centigrade), the cell pellet was resuspended (20 mM Tris-HCl, pH 7.5, 2 mM EDTA, 10 mM EGTA, 50 mM 2-mercaptoethanol, 2 mM phenylmethylsulfonyl fluoride) and sonicated for 20 s with a stepped microprobe sonciator. Unbroken cells were removed by centrifugation as above and the supernatant centrifuged (65,000×g, 90 minutes, 4° Centigrade). The supernatant from this step (cytosol) was then fractionated on a 1×8 cm DEAE-Sephacel column after addition to sucrose to a final concentration of 10%. After equilibrating the column (20 mM Tris, pH 7.5, 0.2 mM EDTA, 0.2 mM EGTA, 50 mM 2-mercaptoethanol, 10% sucrose), the sample was loaded and unbound material was washed through with 40 milliliters of the equilibrating buffer. The PKC was eluted by a gradient from 0-0.5M NaCl in the buffer described above. Fractions of 1 milliliter were collected at 25 milliliters per hour and 0.05 milliliter aliquots assayed for PKC activity as described below. The fractions with the highest activity were pooled and used in further experiments.
The assays were done at pH 7.5 in a total volume of 0.25 milliliter and all tubes contained 25 mM Tris, 10 mM MgCl2, 40 μg per milliliter histone, 10 μM ATP (including 1 μCi of [gamma-^32 P]-ATP), 0.1 mM CaCl2, 20 μg per milliliter phosphatidylserine, 0.05 milliliter of the PKC preparation and 2.5 μM of oleoylacetylglycerol (OAG). Enzymatic activity was determined as the incorporation of ^32 P from [gamma-^32 P]-ATP) into histone in the presence of Ca^2+, phosphatidylserine, and OAG. Reactions were initiated by the addition of the enzyme preparation and halted after 20 minutes at 30° Centigrade by the addition of 0.05 milliliters of bovine serum albumin (10 milligrams per milliliter) and 1 milliliter 25% ice-cold trichloroacetic acid. The tubes were kept on ice and then filtered in a millipore vacuum box using Millipore® HA filters and washed with 25% trichloroacetic acid. The radioactivity bound to the filters was determined by scintillation spectrometry in 5 milliliters Budget Solve®. […] The analog to be tested was dissolved in ethanol, and added directly into the reaction mixture before the addition of PKC. As a control, 0.1% ethanol was included in the samples with the enzyme but with no inhibitor.

For assay [2], the system named is HIV-1. The assay is described as follows: HIV-1 plaque assay, inhibitor added 30 minutes before infection. The format is cell-based, human immunodeficiency virus type 1 (HIV-1).
Description: as §1, §2, §3

The test system of assay [3] is HL60 human leukemia cell line. The assay is described as follows: HL60 cell growth inhibition (trypan blue, 48 h). The format is cell-based. The following applies: Homo sapiens, HL-60, 48 h, HL60, 48 hours; read-out: ID50 (the source's name). On the procedure:
A number of the compounds disclosed herein have been tested against the HL60 human leukemia cell line to assess their cytotoxic potential. These analogs were investigated in parallel with ET-18-OMe which was used as the reference compound. The methodologies used in this investigation were the same as described in A. Noseda, M. Berens, C. Piantadosi, and E. J. Modest, Lipids 22, 878-883, 1987. In brief, HL60 cells at a concentration of […] were incubated in wells with one milliliter medium with the experimental drug in parallel with the same concentration of cells with ET-18-OMe (standard) or EtOH (control). After 48 hours of incubation the cells were counted using the trypan blue dye exclusion technique to determine the effect of the drug on cell growth. The experimental drug and ET-18-OMe were tested at the same concentrations, e.g., 10, 5, 2.5 and 1.25 μM.

Bounds are passed on as bounds.

On to `CCCCCCCCCCCCCCCC(=O)OC[C@H](COP(=O)([O-])OCC[N+](C)(C)C)OC(=O)CCCCCCCCCCCCCCC` [dipalmitoyl-phosphatidylcholine, reference compound], for which the IC50 with HIV-1 [1] is greater than 1360 µM; with CEM-SS cells, greater than 681 µM.

With `CCCCCCCCCCCCCCCCSCC(C[N+](C)(C)CCO)OCC` (stereo not shown) [B], the “Percent Protein Kinase C Activity Retained” value came to 92% in the assay on Protein Kinase C (1.25 μM); 84% in the assay on Protein Kinase C (2.5 μM); 70% in the assay on Protein Kinase C (5.0 μM); 70% with Protein Kinase C (10.0 μM); 66% with Protein Kinase C (20.0 μM); 47% with Protein Kinase C (40.0 μM). Besides, the anti-HIV-1 activity result with HIV-1 [1] is listed as “significant anti-HIV-1 activity”. For the same compound, the IC50 was 0.63 ± 0.18 µM with HIV-1 [1] and 5.4 µM in the assay on CEM-SS cells.

Turning to `CCCCCCCCCCCCCCCCSCC(C[N+](C)(C)CCO)OC.[Br-]` (racemic) [CJM 57, (±)-3-hexadecylthio-2-methoxy-N,N-dimethyl-N-β-hydroxyethyl-1-propyl ammonium bromide], the inhibition (usually the change of the read-out against control, counted positive when it falls) at 0.2 µM in the assay with HIV-1 [2] (Human immunodeficiency virus 1, 0.2 μM, 30 minutes before infection, Table 6) was 30%; in the assay on HIV-1 [2] (Human immunodeficiency virus 1, HIV-1 plaque formation, 0.2 μM, Table 5), 43%; with HIV-1 [1] (Human immunodeficiency virus 1, 1 h, 0.2 μM, 60 minutes after infection), 28%. Besides, the inhibition at 0.4 µM worked out at 38% in the assay with HIV-1 [2] (Human immunodeficiency virus 1, 0.4 μM, 30 minutes before infection, Table 6); 83% in the assay on HIV-1 [2] (Human immunodeficiency virus 1, HIV-1 plaque formation, 0.4 μM, Table 5, read-out: Inhibition (%)); 59% in the assay with HIV-1 [1] (Human immunodeficiency virus 1, 1 h, 0.4 μM, 60 minutes after infection). The inhibition at 2 µM turned out to be 85% in the assay with HIV-1 [2] (Human immunodeficiency virus 1, 2.0 μM, 30 minutes before infection, Table 6); 91% with HIV-1 [2] (Human immunodeficiency virus 1, HIV-1 plaque formation, 2 μM, Table 5); 97% in the assay on HIV-1 [1] (Human immunodeficiency virus 1, 1 h, 2.0 μM, 60 minutes after infection, read-out: Inhibition (%)). The “antiviral activity (HIV-1 plaque formation)” value in the assay with HIV-1 [2] (added before or after infection, in words) was “antiviral activity”. Moreover, the anti-HIV-1 activity entry in the assay with HIV-1 [1] is listed as “significant anti-HIV-1 activity”. For the same compound, the results for the IC50 (in the assay on HIV-1 [1]; in assay [3]; with CEM-SS cells) were 0.37 ± 0.01 µM, 4.6 µM and 3.2 µM, respectively.

As to `CCCCCCCCCCCCCCCCOCC(O)(CO)CCCCCCCC` (stereo not shown) [J], in the assay with HIV-1 [1], the anti-HIV-1 activity result is “did not inhibit HIV-1 plaque formation” and the IC50 is greater than 10 µM. The IC50 in the assay on CEM-SS cells is greater than 20 µM.

Regarding `CCCCCCCCCCCCCCCCCCSCC(C[N+](C)(C)CCCO)OC` (stereo not shown) [I], the “Percent Protein Kinase C Activity Retained” value in the assay with Protein Kinase C (1.25 μM) is on record as 75%; in the assay with Protein Kinase C (2.5 μM), 56%; in the assay with Protein Kinase C (5.0 μM), 49%; in the assay on Protein Kinase C (10.0 μM), 39%; with Protein Kinase C (20.0 μM) it was 27%; with Protein Kinase C (40.0 μM), 23%. In the assay with HIV-1 [1], the anti-HIV-1 activity entry is given as “significant anti-HIV-1 activity”. For the same compound, the figures for the IC50 in the assay on HIV-1 [1] and in the assay on CEM-SS cells were 0.52 ± 0.33 µM and 3.4 µM, respectively.
